{
  "source": "patent US20090048160A1",
  "about": "“Antimicrobial activity of bovine bactericidal/permeability-increasing protein (BPI)-derived peptides against Gram-negative bacterial mastitis isolates” (priority 2007, published 2009)",
  "type_in_all_cases": "cell-based",
  "key": {"[1]": {"test_system": "E. coli strain P4", "assay": "bactericidal activity in whey", "details": "for concentrations at which bactericidal activity was displayed: in the presence of whey; for Mean log10 colony forming units: whey, 6 hours at 37° C.", "experimental": "(§1) Milk and blood samples were aseptically collected from 8 clinically healthy primiparous Holstein cows in mid-lactation with milk somatic cell counts of <150,000 cells/ml. All cows were determined to be free of intramammary pathogens by the absence of growth on blood agar plates spread with milk samples aseptically collected from each animal on 3 different days. For the preparation of whey, milk samples were centrifuged at 44,000×g at 4° C. for 30 min, and the fat layer removed with a spatula. The skim milk was transferred into another sterile tube, centrifuged for an additional 30 min, and the translucent supernatant collected. Milk and whey samples were pasteurized by heating at 63° C. for 30 min. For the preparation of serum, blood was collected from the coccygeal vein into vacutainer tubes containing gel and clot activator (BD Biosciences) for serum separation. The tubes were inverted ×5, the blood allowed to clot for 30 min, and the tubes centrifuged at 1500×g for 15 min. The clear serum supernatants were aseptically transferred into sterile tubes and heat-inactivated by incubating at 56° C. for 30 min. An aliquot of each sample was plated on blood agar plates and samples that were free of detectable bacterial growth were stored at −20° C.\n(§2) Overnight bacterial cultures of E. coli strain P4 grown in trypticase soy broth were diluted 1:1,000 in brain heart infusion broth and incubated at 37° C. for 2 hours while shaking at 225 rpm. The log-phase bacteria were diluted 1:10 in brain heart infusion broth to obtain a final concentration of […]. 0.01 ml of the bacterial inoculum was added to a 1.5 ml sterile microcentrifuge tube containing 0.04 ml of serum, milk, or whey. A 0.05 ml aliquot of either peptide or CBS alone was added to each tube. The samples were then shaken at 100 rpm for 6 hours at 37° C. The sample mixtures were subsequently serially diluted in sterile phosphate-buffered saline and plated on MacConkey agar plates (BD Biosciences). The plates were incubated overnight at 37° C. and the colonies enumerated.\nHowever, bBPI90-99,148-161 was able to inhibit >99% of the growth of E. coli in milk. Because milk appeared to have an inhibitory effect on the bactericidal activity of bBPI90-99,148-161, the peptides were subsequently evaluated for their ability to retain activity in whey, which is the casein-depleted, protein-rich liquid fraction of milk (Table 4)."}, "[2]": {"test_system": "Pseudomonas aeruginosa", "assay": "microbe, parasite or virus in culture", "from_the_text": "(§3) Bacterial isolates of Escherichia coli, Klebsiella pneumonia, Serratia marcescens, Pseudomonas aeruginosa, Enterobacter cloacae, and Enterobacter aerogenes, which were obtained from clinical cases of bovine mastitis, were used to assess the bactericidal activity of peptides in a broth microdilution assay. Isolates were obtained from repositories at Cornell University (gift of Dr. Y. H. Schukken; Quality Milk Production Services Program, Cornell University, Ithaca N.Y.) and the USDA Beltsville Agricultural Research Center. […] A. J. Bramley, Institute for Animal Health, Compton Laboratory, Newbury, England), which was originally isolated from a clinical case of mastitis ([…]. Dairy Res. 43: 205-211) was also used to assess the bactericidal activity of the peptides in biological fluids. Reference strains of E. coli (ATCC 25922) and Staphylococcus aureus (ATCC 29213) were obtained from a commercial source (American Type Culture Collection (ATCC), Manassas, Va.). To obtain fresh inoculums for evaluation, a sterile loop of each bacterial glycerol stock was streaked on a blood agar plate. After an overnight incubation at 35° C., a single uniform colony was picked and sub-passaged by streaking on a new blood agar plate and incubating the plate overnight at 35° C. To evaluate the antimicrobial activity of the peptides against various clinical mastitis bacterial isolates, the minimum inhibitory concentration (MIC) and the minimum bactericidal concentration (MBC) of these peptides against the isolates were determined using a standardized broth microdilution assay. In addition to the mastitis isolates, E. coli (ATCC 25922) and S. aureus (ATCC 29213) reference strains were evaluated. […] The assays were performed in accordance with Clinical and Laboratory Standards Institute (CLSI) [formerly National Committee for Clinical Laboratory Standards (NCCLS)] guidelines (National Committee for Clinical Laboratory Standards. 1999. Methods for Determining Bacterial Activity of Antimicrobial Agents: Approved Guideline. Wayne, Pa.; National Committee for Clinical Laboratory Standards. 2002. Performance Standards for Antimicrobial Disk and Dilution Susceptibility Tests for Bacteria Isolated from Animals: Approved Standard. 2nd Edition, Wayne, Pa.). […] The bacterial suspension was then diluted 100-fold in cation-adjusted Mueller-Hinton broth to reach a final inoculum concentration of 10^6 CFU/ml. […] A negative control column was included in the plate that included 100 μl of broth alone. The plates were incubated for 18 h at 35° C. with ambient air circulation and without shaking. The wells were subsequently inspected for cloudiness and pellet formation using a magnifying glass plate reader. The lowest concentration at which no pellet or cloudiness was apparent in a given well was identified as the MIC. […] The plates were incubated overnight at 35° C. and colonies subsequently enumerated. The MBC values were determined as the lowest concentration at which ≧99.9% of inoculated bacteria were killed. All assays were performed in triplicate and the MIC and MBC range reported."}, "[3]": {"test_system": "Enterobacter cloacae", "assay": "microbe, parasite or virus in culture", "from_the_text": "as §3"}, "[4]": {"test_system": "Serratia marcescens", "assay": "microbe, parasite or virus in culture", "from_the_text": "as §3"}, "[5]": {"test_system": "Staphylococcus aureus", "assay": "microbe, parasite or virus in culture", "from_the_text": "as §3"}, "[6]": {"test_system": "E. coli strain P4", "assay": "bactericidal activity in serum", "details": "for Mean log10 colony forming units: serum, 6 hours at 37° C.", "experimental": "as §1, §2\nTo determine whether bBPI142-169 and bBPI90-99,148-161 retained their bactericidal activity in physiological fluids, the peptides were incubated with E. coli strain P4 (1×10^5 CFU) in the presence of serum (Table 2) or milk (Table 3)."}},
  "note": "Ends that are not written are not given here.",
  "data": [
    {"sequence": "KWKARKNFIKGSSLGWLIQLFRKR [bBPI90-99,148-161]", "values": [
      {"measurement": "concentrations at which bactericidal activity was displayed", "setting": "[1]", "result": "≥ 10", "unit": "µg/mL"},
      {"measurement": "Mean log10 colony forming units", "setting": "[1]; peptide 0.1 μg/ml", "result": "8.17 log10 colony forming units"},
      {"measurement": "Mean log10 colony forming units", "setting": "[1]; peptide 1 μg/ml", "result": "7.97 log10 colony forming units"},
      {"measurement": "Mean log10 colony forming units", "setting": "[1]; peptide 10 μg/ml", "result": "0 log10 colony forming units"},
      {"measurement": "Mean log10 colony forming units", "setting": "[1]; peptide 100 μg/ml", "result": "0 log10 colony forming units"},
      {"measurement": "MIC and MBC values", "setting": "[2]", "result": "≤ 128", "unit": "µg/mL"},
      {"measurement": "MIC and MBC values", "setting": "[3]", "result": "≤ 64", "unit": "µg/mL"},
      {"measurement": "MBC", "setting": "[4]", "result": ">512", "unit": "µg/mL"},
      {"measurement": "MIC", "setting": "[4]", "result": ">512", "unit": "µg/mL"},
      {"measurement": "MBC", "setting": "[5]", "result": "64 to 128", "unit": "µg/mL"},
      {"measurement": "MIC", "setting": "[5]", "result": 64, "unit": "µg/mL"},
      {"measurement": "concentrations at which bactericidal activity was demonstrated", "setting": "[6]; in the presence of serum", "result": "≥ 10", "unit": "µg/mL"},
      {"measurement": "Mean log10 colony forming units", "setting": "[6]; peptide 0.1 μg/ml", "result": "8.25 log10 colony forming units"},
      {"measurement": "Mean log10 colony forming units", "setting": "[6]; peptide 1 μg/ml", "result": "8.15 log10 colony forming units"},
      {"measurement": "Mean log10 colony forming units", "setting": "[6]; peptide 10 μg/ml", "result": "0 log10 colony forming units"},
      {"measurement": "Mean log10 colony forming units", "setting": "[6]; peptide 100 μg/ml", "result": "0 log10 colony forming units"}
    ]},
    {"sequence": "NSQIRPLPDKGLDLSIRDASIKIRGKWKARKNFIK [bBPI65-99]", "values": [
      {"measurement": "concentrations at which bactericidal activity was displayed", "setting": "[1]", "result": "neither bBPI65-99 nor bBPI142-169 demonstrated bactericidal activity at any concentration tested"},
      {"measurement": "Mean log10 colony forming units", "setting": "[1]; peptide 0.1 μg/ml", "result": "8.47 log10 colony forming units"},
      {"measurement": "Mean log10 colony forming units", "setting": "[1]; peptide 1 μg/ml", "result": "8.26 log10 colony forming units"},
      {"measurement": "Mean log10 colony forming units", "setting": "[1]; peptide 10 μg/ml", "result": "8.16 log10 colony forming units"},
      {"measurement": "Mean log10 colony forming units", "setting": "[1]; peptide 100 μg/ml", "result": "7.36 log10 colony forming units"},
      {"measurement": "MBC", "setting": "[2]", "result": ">256", "unit": "µg/mL"},
      {"measurement": "MIC", "setting": "[2]", "result": ">256", "unit": "µg/mL"},
      {"measurement": "MBC", "setting": "[3]", "result": ">256", "unit": "µg/mL"},
      {"measurement": "MIC", "setting": "[3]", "result": ">256", "unit": "µg/mL"},
      {"measurement": "MBC", "setting": "[4]", "result": ">512", "unit": "µg/mL"},
      {"measurement": "MIC", "setting": "[4]", "result": ">512", "unit": "µg/mL"},
      {"measurement": "MBC", "setting": "[5]", "result": ">256", "unit": "µg/mL"},
      {"measurement": "MIC", "setting": "[5]", "result": ">256", "unit": "µg/mL"},
      {"measurement": "Mean log10 colony forming units", "setting": "[6]; peptide 0.1 μg/ml", "result": "8.27 log10 colony forming units"},
      {"measurement": "Mean log10 colony forming units", "setting": "[6]; peptide 1 μg/ml", "result": "8.28 log10 colony forming units"},
      {"measurement": "Mean log10 colony forming units", "setting": "[6]; peptide 10 μg/ml", "result": "8.23 log10 colony forming units"},
      {"measurement": "Mean log10 colony forming units", "setting": "[6]; peptide 100 μg/ml", "result": "8.07 log10 colony forming units"}
    ]},
    {"sequence": "VRIHISGSSLGWLIQLFRKRIESLLQKS [bBPI142-169]", "values": [
      {"measurement": "concentrations at which bactericidal activity was displayed", "setting": "[1]", "result": "neither bBPI65-99 nor bBPI142-169 demonstrated bactericidal activity at any concentration tested"},
      {"measurement": "Mean log10 colony forming units", "setting": "[1]; peptide 0.1 μg/ml", "result": "8.29 log10 colony forming units"},
      {"measurement": "Mean log10 colony forming units", "setting": "[1]; peptide 1 μg/ml", "result": "8.44 log10 colony forming units"},
      {"measurement": "Mean log10 colony forming units", "setting": "[1]; peptide 10 μg/ml", "result": "8.10 log10 colony forming units"},
      {"measurement": "Mean log10 colony forming units", "setting": "[1]; peptide 100 μg/ml", "result": "7.45 log10 colony forming units"},
      {"measurement": "MBC", "setting": "[2]", "result": ">256", "unit": "µg/mL"},
      {"measurement": "MIC", "setting": "[2]", "result": ">256", "unit": "µg/mL"},
      {"measurement": "MBC", "setting": "[3]", "result": ">256", "unit": "µg/mL"},
      {"measurement": "MIC", "setting": "[3]", "result": ">256", "unit": "µg/mL"},
      {"measurement": "MBC", "setting": "[4]", "result": ">512", "unit": "µg/mL"},
      {"measurement": "MIC", "setting": "[4]", "result": ">512", "unit": "µg/mL"},
      {"measurement": "MBC", "setting": "[5]", "result": "128 to 256", "unit": "µg/mL"},
      {"measurement": "MIC", "setting": "[5]", "result": "128 to 256", "unit": "µg/mL"},
      {"measurement": "Mean log10 colony forming units", "setting": "[6]; peptide 0.1 μg/ml", "result": "8.42 log10 colony forming units"},
      {"measurement": "Mean log10 colony forming units", "setting": "[6]; peptide 1 μg/ml", "result": "8.38 log10 colony forming units"},
      {"measurement": "Mean log10 colony forming units", "setting": "[6]; peptide 10 μg/ml", "result": "8.29 log10 colony forming units"},
      {"measurement": "Mean log10 colony forming units", "setting": "[6]; peptide 100 μg/ml", "result": "7.96 log10 colony forming units"}
    ]}
  ]
}
